Data taken from PubChem BioAssay (NCI).
Several values for one entry are separate records, joined by “and”; a condition that tells them apart may be missing. Equal entries are not always repeated.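 Five concentrations, 48 hours, 96-well plates. GI50 = concentration required for 50% inhibition of growth. TGI is the concentration that stops growth completely.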

What was measured:
Assay in all cases: inhibition of tumour cell growth, NCI panel, 48 h
[1] = tested on: SK-MEL-28 melanoma
[2] = tested on: OVCAR-3 ovarian
[3] = tested on: MOLT-4 leukemia
[4] = tested on: CAKI-1 renal
[5] = tested on: SK-OV-3 ovarian
[6] = tested on: SR leukemia
[7] = tested on: MCF7 breast
[8] = tested on: DU-145 prostate
[9] = tested on: SN12C renal
[10] = tested on: TK-10 renal

SMILES	GI50 [1]	TGI [1]	GI50 [2]	TGI [2]	GI50 [3]	TGI [3]	GI50 [4]	TGI [4]	GI50 [5]	TGI [5]	GI50 [6]	TGI [6]	GI50 [7]	TGI [7]	GI50 [8]	TGI [8]	TGI [9]	TGI [10]	GI50 [9]	GI50 [10]
CC(=O)Nc1ccc2c(c1)CN1C(=O)c3ccccc3C1=N2	> 100 µM	> 100 µM	> 100 µM	> 100 µM	> 100 µM	> 100 µM	> 100 µM	> 100 µM	> 100 µM	> 100 µM	> 100 µM	> 100 µM	> 100 µM	> 100 µM	> 100 µM	> 100 µM				
C=C(C[N+](C)(C)C)N/N=C/c1oc(-c2ccc(OC)c(OC)c2)c(-c2ccc(OC)c(OC)c2)c1[N+](=O)[O-]		33.8 µM		71.6 µM		83.6 µM		> 100 µM		64.4 µM		23.9 µM				> 100 µM	32.6 µM	50.6 µM		
Oc1cccc(-c2nc(N3CCOCC3)c3oc4ncccc4c3n2)c1	0.152 µM and 0.0882 µM	2.22 µM	0.164 µM and 0.213 µM	0.811 µM and 3.24 µM	0.102 µM and 0.168 µM	> 100 µM	0.318 µM and 0.342 µM	2.24 µM and 7.38 µM	0.0912 µM and 0.0819 µM	0.606 µM and 0.393 µM	0.244 µM	7.42 µM	0.27 µM and 0.18 µM	> 100 µM and 11.9 µM	0.188 µM and 0.161 µM	> 100 µM	> 100 µM	4.01 µM and 4.58 µM	0.0923 µM and 0.136 µM	1.26 µM and 1.51 µM
O=C(Nc1nc2ccc(F)cc2s1)c1cccnc1Nc1ccc(Cl)cc1Cl	3.69 µM	18.6 µM	2.18 µM	7.1 µM	2.35 µM	17.3 µM	1.91 µM	8.71 µM	2.26 µM	7.38 µM	2.22 µM	8.23 µM	2.73 µM	13 µM	3.22 µM	13.4 µM	13.7 µM	19.1 µM	2.65 µM	3.53 µM
COc1ccc2c(c1)c(-c1cc(-c3cn(C)c4ccc(OC)cc34)[nH]n1)cn2C	> 100 µM	> 100 µM	> 100 µM	> 100 µM	> 100 µM	> 100 µM	> 100 µM	> 100 µM	> 100 µM	> 100 µM	> 100 µM	> 100 µM	> 100 µM	> 100 µM	> 100 µM	> 100 µM	> 100 µM	> 100 µM	> 100 µM	> 100 µM
CC(=O)OC1Oc2cc(C)c(C)cc2-c2oc(=O)c(-c3ccccc3)cc21 (stereo unspecified)	0.464 µM	55.6 µM	0.114 µM	0.355 µM	0.355 µM		0.525 µM	> 54.1 µM	0.407 µM	37.3 µM	0.215 µM	> 100 µM	0.28 µM	27.5 µM	0.297 µM	1.2 µM	> 100 µM	> 44.9 µM	0.487 µM	1.14 µM
O=c1c2ccccc2c(=O)c2c1sc1c(=O)c3ccc(O)cc3c(=O)c12	0.247 µM	0.541 µM	0.263 µM	0.924 µM	2.17 µM	8.07 µM	1.29 µM	3.26 µM	1.38 µM	2.91 µM	1.08 µM	> 100 µM			0.174 µM	0.312 µM	0.36 µM	3.97 µM	0.187 µM	2.24 µM
N#CC1=C(N)NC(=S)C(C#N)C12Nc1ccccc1S2 (stereo unspecified)	24.3 µM	56.7 µM	12.6 µM	40.1 µM	> 100 µM	> 100 µM	11 µM	35.1 µM	27.1 µM	77.8 µM	78.9 µM	> 100 µM	8.14 µM	> 100 µM			33.2 µM	46.6 µM	14.4 µM	14.4 µM
COc1ccccc1-c1nccc(COc2ccccc2C[C@@H](Oc2ncnc3sc(-c4ccc(F)cc4)c(-c4ccc(OCCN5CCN(C)CC5)c(Cl)c4C)c23)C(=O)O)n1	1.76 µM	3.36 µM	2.51 µM	6.99 µM	0.0436 µM	1.54 µM	2.66 µM	9.89 µM	4.04 µM	16.5 µM	0.034 µM	0.714 µM	0.0786 µM	1.95 µM	5.84 µM	13.9 µM	3.83 µM	14.9 µM	1.75 µM	3.46 µM
O=C1c2c(O)ccc(O)c2C(=O)c2c(NCCNCCO)ccc(NCCNCCO)c21		1.66 µM and 1.03 µM and 2.31 µM	0.483 µM	1.87 µM and 1.47 µM and 2.13 µM	< 0.01 µM and < 0.005 µM and 0.00476 µM	0.235 µM and 0.339 µM		1.07 µM and 0.18 µM		0.228 µM and 0.563 µM and 0.431 µM	< 0.005 µM	0.102 µM and 0.389 µM and 0.865 µM	< 0.01 µM and < 0.005 µM and 0.00426 µM	0.64 µM and 0.663 µM and 1.23 µM		0.0832 µM and 0.465 µM and 0.31 µM	0.162 µM and 1.57 µM and 0.214 µM	1.36 µM and 0.654 µM and 2.05 µM		
C/C(=N\O)[C@H]1CC[C@@]2(C)[C@@H]3CC[C@H]4C(C)(C)/C(=N/O)CC[C@@]45CC35CC[C@]12C (stereo partly specified)	4.34 µM	14.2 µM			3.26 µM	> 16.7 µM			6.18 µM	> 16.7 µM	1.85 µM	> 16.7 µM	5.82 µM	> 16.7 µM	2.85 µM	6.2 µM	> 16.7 µM	> 16.7 µM	6.58 µM	8.17 µM
Nn1nnc2ccccc21		> 100 µM		> 100 µM		> 100 µM				> 100 µM		> 100 µM		> 100 µM		> 100 µM	> 100 µM	> 100 µM		
Cc1nnc(N=Nc2c(O)[nH]c3ccccc23)[nH]c1=O		> 100 µM		> 100 µM		> 100 µM				> 100 µM		> 100 µM		> 100 µM		> 100 µM	> 100 µM	> 100 µM		
CNc1ccc(N=Nc2cccc3ncccc23)cc1	> 100 µM	> 100 µM			14.2 µM	> 100 µM	6 µM	> 100 µM	> 73.9 µM	> 100 µM	16.1 µM	> 88.7 µM	0.0261 µM	> 100 µM	> 100 µM	> 100 µM	> 100 µM	> 100 µM	36.5 µM	> 100 µM
CCCCCCCCCCCCCCCCCCNC(=O)[C@H]1CSC(c2ccc(F)c(OC)c2)N1 (stereo partly specified)	0.647 µM	1.33 µM			0.717 µM	5.17 µM	0.846 µM	1.58 µM	1.92 µM	11.2 µM	0.637 µM	1.91 µM	0.141 µM	0.541 µM	1.79 µM	> 50 µM	1.72 µM		0.805 µM	
C(/C=C/N1CCCC1)=C\c1nc(N2CCCC2)c2ccccc2n1		38.7 µM		29.7 µM		52.3 µM		35.3 µM		36.3 µM		33.9 µM					29 µM	> 100 µM		
CC12O[Te]34OC1(C)C(C)(O3)C2(C)O4		23.3 µM		30.4 µM		34.6 µM		22.6 µM		36.3 µM		34 µM					23 µM	29.4 µM		
Cc1nc2cc(Nc3nc(Nc4ccc(F)cc4)nc(-c4ccc(Cl)cc4)n3)ccc2n1Cc1ccccc1	8.63 µM	> 100 µM	7.91 µM	> 100 µM	3.09 µM	> 100 µM			10.9 µM	> 100 µM	2.88 µM	9.55 µM	3.1 µM	> 100 µM	23.4 µM	> 100 µM	> 100 µM		46.4 µM	
COc1ccc(-c2conc2-c2ccccc2)cc1	10.8 µM	> 100 µM			0.706 µM	> 100 µM	0.246 µM	> 100 µM	0.501 µM	> 100 µM	0.155 µM	> 100 µM	0.0865 µM	> 100 µM	0.416 µM		> 100 µM	> 100 µM	1 µM	15.3 µM
Cc1cc2c(-c3nc4ccccn4c3NC34CC5CC(CC(C5)C3)C4)c(O)c(O)cc2c(O)c1-c1c(C)cc2c(-c3nc4ccccn4c3NC34CC5CC(CC(C5)C3)C4)c(O)c(O)cc2c1O	0.459 µM	4.69 µM	0.617 µM	8.3 µM	0.11 µM	10.4 µM			0.749 µM	2.3 µM	0.854 µM	4.86 µM	0.175 µM	4.28 µM			> 25 µM	> 25 µM	0.716 µM	0.794 µM
Cc1ccc(NCCNCC(O)CO)c2c(=O)c3ccccc3sc12 (stereo unspecified)	1.69 µM	3.3 µM	2.15 µM	4.7 µM			1.64 µM	3.38 µM	1.65 µM	3.86 µM	1.55 µM	3.97 µM	1.19 µM	2.65 µM	1.28 µM	2.62 µM	3.19 µM	3.1 µM	1.32 µM	1.51 µM
CCOc1ccccc1NC(=O)CCC(=O)NN		> 100 µM		> 100 µM		> 100 µM		> 100 µM		> 100 µM		70.1 µM					> 100 µM	> 100 µM		
CN1C=C(C(N)=O)C2CC(O)[C@@](NC(=O)CS(N)(=O)=O)(C(=O)O)C2C1 (stereo partly specified)		7.32 µM		42.6 µM		31.6 µM		> 100 µM		6.75 µM		15.7 µM					> 75.1 µM	28.5 µM		
